Here are results for five compounds from ChEMBL document CHEMBL1151406, “An investigation of the antiviral activity of Podophyllum peltatum” (J Nat Prod, 1982).

The test system of data set [1] is Measles morbillivirus. Kind of data set: Antiviral activity against measles virus infected in african green monkey Vero cells assessed as inhibition of virus-induced cytopathic effect at 1 uM. Format: functional. Set-up: scale not given: the % may be the effect or the level left. A general note: Cytopathic effects are the visible damage that an infection or toxin causes in cultured cells.

The subject of data set [2] is Measles morbillivirus. In words: Antiviral activity against measles virus infected in african green monkey Vero cells assessed as cell rounding at 1 uM. It is filed as functional.
The subject of a further data set is Vero. In words: Cytotoxicity against african green monkey Vero cells assessed as cell rounding at 1 uM. It is filed as cell-based. To be noted: chlorocebus sabaeus.
Data set [3] concerns Measles morbillivirus. In words: Antiviral activity against measles virus infected in african green monkey Vero cells assessed as plaque formation at 1 uM after 5 days by neutral red assay relative to control. It is filed as functional.
A short description of data set [4]: Cytotoxicity against african green monkey Vero cells assessed as cell viability at 1 uM by trypan blue exclusion assay. To be noted: chlorocebus sabaeus, read-out: Activity. Format: cell-based.
The next data set relates to Human alphaherpesvirus 1. Kind of data set: Antiviral activity against HSV1 infected in african green monkey Vero cells assessed as plaque formation at 1 uM after 4 days by neutral red assay relative to control. Format: functional.

The structures appear in SMILES notation.

With `COc1cc([C@@H]2c3cc4c(c(O)c3C[C@H]3COC(=O)[C@@H]32)OCO4)cc(OC)c1O`, the Activity in the data set on Measles morbillivirus [1] is recorded as 25%; in the data set on Measles morbillivirus [2], above 95%; in the data set on Vero, 5%; in the data set on Measles morbillivirus [3] it was 47.5%; with Human alphaherpesvirus 1 it was 31.1%. For the same compound, the viability at 1 µM in data set [4] was 91.9%.
Take `COc1cc([C@@H]2c3cc4c(cc3[C@H](O)[C@H]3COC(=O)[C@@H]23)OCO4)cc(OC)c1OC` [AXL-1717]: the Activity in the data set on Measles morbillivirus [1] was found to be 100%; with Measles morbillivirus [2] it was 5%; with Vero it was 15%; with Measles morbillivirus [3], 41.5%; in the data set with Human alphaherpesvirus 1, 84.4%. In addition, in data set [4], the viability at 1 µM was determined as 89.9%.
With `COc1cc([C@@H]2c3cc4c(c(O)c3C[C@H]3COC(=O)[C@@H]32)OCO4)cc(OC)c1OC` [BETA-PELTATIN A], the Activity worked out at 100% in the data set with Measles morbillivirus [1]; 50% in the data set on Measles morbillivirus [2]; 5% in the data set on Vero; 15.1% in the data set with Measles morbillivirus [3]; 21.7% in the data set on Human alphaherpesvirus 1. Moreover, the viability at 1 µM in data set [4] worked out at 85.4%.
As for `COc1cc([C@@H]2c3cc4c(cc3C[C@H]3COC(=O)[C@@H]32)OCO4)cc(OC)c1OC` [DESOXYPODOPHYLLOTOXIN], the Activity in the data set on Measles morbillivirus [1] is reported as 70%; with Measles morbillivirus [2], 50%; in the data set with Vero, 30%; in the data set on Measles morbillivirus [3], 19.8%; in the data set on Human alphaherpesvirus 1, 16.2%. Further, the viability at 1 µM in data set [4] was 90.7%.
With `COc1cc([C@@H]2c3cc4c(cc3[C@H](O)[C@H]3COC(=O)[C@H]23)OCO4)cc(OC)c1OC` [PODOFILOX], the Activity in the data set on Measles morbillivirus [1] is recorded as 25%; in the data set with Measles morbillivirus [2], above 95%; with Vero, 80%; in the data set with Measles morbillivirus [3], 0.9%; with Human alphaherpesvirus 1 it was 11.7%. In addition, in data set [4], the viability at 1 µM turned out to be 91.7%.
